Measured values: US4549023A, “3-Aminoindazole derivatives” (priority 1980, dated 1985)
Read-outs that look alike come from different tables or passages of the source.

What was measured:
[1] = test system: carrageenin edema in rat's paw; assay: Carrageenin Edema Test in Rat's Paw (anti-inflammatory activity); assay type: in vivo, Female Wistar rats; settings: for inhibition in vivo at 100 mg/kg: Rattus norvegicus, hydrochloric acid salts; for Inhibition values compared with comparative compounds: Table 1, 100 mg/kg
Method: A standard method of Carrageenin Edema Test in Rat's Paw described in C. A. Winter et al., Proc. Soc. Exp. Biol. Med., 111, 544 (1962) was employed.
[…] One hour later, the pad of a hind paw of the rat was injected with 0.1 ml of 1% aqueous carrageenin solution. The volume of the paw was measured both before the injection of carrageenin and three hours after the injection.
The edema inhibition percentage of the test compound was calculated from the ratio of the increase in the volume of the affected paw of the test animals to the increase in the volume of the affected paw of the controls.
The anti-inflammatory activity of the 3-aminoindazole derivative hydrochloric acid salts of this invention was measured.
The anti-inflammatory activity of the 3-aminoindazole derivative hydrochloric acid salts obtained by Examples 1-49 of this invention was measured by the standard method of carrageenin edema test. In these tests, the amount of the administration of the salts was 100 mg/kg. The results are shown in Table 17 (Inhibition (%) was measured three hours after the injection).

[2] = test system: carrageenin-inflamed hind paw of the rat (pressure pain); assay: Randall-Selitto Test (analgesic activity); assay type: in vivo, Female wister rats; settings: 100 mg/kg, hydrochloric acid salts; water 0.8
Method: The Randall-Selitto analgesic activity test was carried out according to the general method described in J. O. Randall & J. J. Selitto, Arch. Int. Pharmacodyn, 111, 409 (1957). Female wister rats weighing 120-150 g were orally administered 50 mg/kg of the test compound as an aqueous solution. Thirty minutes later, the pad of a hind paw of the rat was injected with 0.1 ml of 1% aqueous carrageenin solution. Pressure was applied to the paw where edema was formed by Balance-type Pressure Device (Ugo Basile Company; Italy) 1, 2, 3 and 4 hours after the injection. The weight when the test animals began to struggle with pain was measured. The analgesic activity is represented by an analgesic coefficient which is obtained by dividing the average weight measured 1.5, 2.5, 3.5 and 4.5 hours after the administration by the applied weight prior to the administration.
The analgesic activity of the 3-aminoindazole derivative hydrochloric acid salts obtained by Examples 2, 6, 10, 18, 22 and 28 of this invention was measured by the standard method of Randall-Selitto test. In these tests, the amount of the administration of the salts was 100 mg/kg.

[3] = Acute toxicity (LD50), intravenous injection; settings: mouse, in vivo, male ddY-strain mice, read-out: LD50, Table 19
Method: Acute toxicity was measured by an ordinary method described in Finney DJ Probit Analysis Cambridge University Press 48, (1952). Ddy mice weighing about 18 g on average, each group consisting of 10 animals, were […] injected with the physiological salt solution containing the test compound. The amount of the test compound administered was varied in 5-8 groups. Three days after the administration, dead animals were counted in each group. The amount of the test compound killing half the number of the animals (LD50) was calculated from the results.
The acute toxicity of the 3-aminoindazole derivatives and their hydrochloric acid salts obtained by Examples 1-49 of this invention was measured by giving male ddY-strain mice an intravenous injection.

[4] = test system: acetic acid-induced writhing in mice; assay: Acetic Acid-Writhing Test (analgesic activity); assay type: in vivo, Male ddy-strain mice; settings: 100 mg/kg, oral, hydrochloric acid salts
Method: Acetic acid-writhing test was carried out according to Koster et al., Fed. Proc., 18, 412 (1959). […] Thirty minutes later, the mice were intraperitoneally injected with 0.1 ml/10 g of 0.7% acetic acid physiological salt solution as a stimulant. Ten minutes after the stimulant injection, writhing frequency as pain response was observed and recorded over 10 minutes.
The inhibition percentage of the test compound was represented as the ratio of the inhibition of the writhing frequency.
Analgesic activity of 3-aminoindazole derivative hydrochloric acid salts was measured by acetic acid-writhing test.

[5] = po, 3 h, measured three hours after the injection, read-out: Inhibition (carrageenin edema), Table 17
[6] = oral, 3 h after carrageenin, read-out: Inhibition (carrageenin edema), Table 1

| SMILES | inhibition in vivo at 100 mg/kg [1, 5] | inhibition in vivo at 100 mg/kg [1, 6] | Inhibition values compared with comparative compounds [1] | Analgesic Coefficient, Table 18 [2] | LD50 at 72 h [3] | Inhibition (acetic acid-writhing), Table 3 [4] |
| --- | --- | --- | --- | --- | --- | --- |
| c1ccc2c(NCCCN3CCCCC3)n[nH]c2c1 [Compound (2), 3-(3-piperidinopropylamino)indazole] | 55% | 55% | higher than that of the compound C-1 | 0.98 | 101 mg/kg | 53% |
| Nc1nn(CCCN2CCCCCC2)c2ccccc12 [Compound (21), 1-(3-homopiperidinopropyl)-3-aminoindazole] | 58% |  |  |  | 184 mg/kg |  |
| CC1CCCC(C)N1CCCn1nc(N)c2ccccc21 (centres unmarked) [Compound (23), 1-{3-(2,6-dimethylpiperidino)propyl}-3-aminoindazole] | 34% |  |  |  | 152 mg/kg |  |
| Nc1nn(CCCN2CCC(O)CC2)c2ccccc12 [Compound (24), 1-{3-(4-hydroxypiperidino)propyl}-3-aminoindazole] | 46% |  |  |  | 367 mg/kg |  |
| Nc1nn(CCCN2CCC(Cl)CC2)c2ccccc12 [Compound (25), 1-{3-(4-chloropiperidino)propyl}-3-aminoindazole] | 59% |  |  |  | 356 mg/kg |  |
| CCN(CC)CCCn1nc(N)c2ccccc21 [Compound (26), 1-(3-diethylaminopropyl)-3-aminoindazole] | 61% |  |  |  | 243 mg/kg |  |
| CCCCN(CCCC)CCCn1nc(N)c2ccccc21 [Compound (27), 1-(3-di-n-butylaminopropyl)-3-aminoindazole] | 57% |  |  |  | 124 mg/kg |  |
| CN(C)CCn1nc(N)c2ccccc21 [Compound (28), 1-(2-dimethylaminoethyl)-3-aminoindazole] | 44% | 44% | higher than those of the compounds C-2 and C-3 | 0.96 | 343 mg/kg |  |
| CC(CCn1nc(N)c2ccccc21)N1CCCCC1 (centres unmarked) [Compound (29), 1-(3-piperidinobutyl)-3-aminoindazole] | 46% |  |  |  | 104 mg/kg |  |
| CC(C)CC(CCn1nc(N)c2ccccc21)N1CCCCC1 (centres unmarked) [Compound (30), 1-(5-methyl-3-piperidinohexyl)-3-aminoindazole] | 35% |  |  |  | 153 mg/kg |  |
| CC(C)CC(CCn1nc(N)c2ccccc21)N(C)C (centres unmarked) [Compound (31), 1-(3-dimethylamino-5-methylhexyl)-3-aminoindazole] | 28% |  |  |  | 154 mg/kg |  |
| CN1CCN(CCCn2nc(N)c3ccccc32)CC1 [Compound (32), 1-{3-(4-methylpiperazino)propyl}-3-aminoindazole] | 27% |  |  |  | 368 mg/kg |  |
| CCN(CC)CCCNc1nn(CCCN(CC)CC)c2ccccc12 [Compound (33), 1-(3-diethylaminopropyl)-3-(3-diethylaminopropylamino)indazole] | 29% | 29% |  |  | 238 mg/kg |  |
| CCN(CC)CCCn1nc(NCCCN2CCCCC2)c2ccccc21 [Compound (34), 1-(3-diethylaminopropyl)-3-(3-piperidinopropylamino)indazole] | 28% | 28% |  |  | 172 mg/kg |  |
| CCN(CC)CCCn1nc(NCCCCCCN2CCCCC2)c2ccccc21 [Compound (35)] | 21% |  |  |  | 193 mg/kg |  |
| CCCCN(CCCC)CCCNc1nn(CCCN(CC)CC)c2ccccc12 [Compound (36), 1-(3-diethylaminopropyl)-3-(3-di-n-butylaminopropylamino)indazole] | 31% |  |  |  | 179 mg/kg |  |

| SMILES | inhibition in vivo at 100 mg/kg [1, 5] | inhibition in vivo at 100 mg/kg [1, 6] | Inhibition values compared with comparative compounds [1] | Analgesic Coefficient, Table 18 [2] | LD50 at 72 h [3] | Inhibition (acetic acid-writhing), Table 3 [4] |
| --- | --- | --- | --- | --- | --- | --- |
| CCN(CC)CCCn1nc(NCCC(C)N2CCCCC2)c2ccccc21 (centres unmarked) [Compound (37), 1-(3-diethylaminopropyl)-3-(3-piperidinobutylamino)indazole] | 27% |  |  |  | 169 mg/kg |  |
| CCN(CC)CCCNc1nn(CCCN2CCCCC2)c2ccccc12 [Compound (38), 1-(3-piperidinopropyl)-3-(3-diethylaminopropylamino)indazole] | 29% | 29% |  |  | 168 mg/kg |  |
| c1ccc2c(c1)c(NCCCN1CCCCC1)nn2CCCN1CCCCC1 [Compound (39), 1-(3-piperidinopropyl)-3-(3-piperidinopropylamino)indazole] | 28% | 28% |  |  | 102 mg/kg |  |
| c1ccc2c(c1)c(NCCCCCCN1CCCCC1)nn2CCCN1CCCCC1 [Compound (40)] | 21% |  |  |  | 122 mg/kg |  |
| CC(CCNc1nn(CCCN2CCCCC2)c2ccccc12)N1CCCCC1 (centres unmarked) [Compound (41), 1-(3-piperidinopropyl)-3-(3-piperidinobutylamino)indazole] | 28% |  |  |  | 99 mg/kg |  |
| CCN(CC)CCCNc1nn(CCC(C)N2CCCCC2)c2ccccc12 (centres unmarked) [Compound (42), 1-(3-piperidinobutyl)-3-(3-diethylaminopropylamino)indazole] | 29% |  |  |  | 167 mg/kg |  |
| CC(CCn1nc(NCCCN2CCCCC2)c2ccccc21)N1CCCCC1 (centres unmarked) [Compound (43), 1-(3-piperidinobutyl)-3-(3-piperidinopropylamino)indazole] | 28% |  |  |  | 98 mg/kg |  |
| CC(C)CC(CCNc1nn(CCC(C)N2CCCCC2)c2ccccc12)N1CCCCC1 (centres unmarked) [Compound (44), 1-(3-piperidinobutyl)-3-(5-methyl-3-piperidinohexylamino)indazole] | 21% |  |  |  | 123 mg/kg |  |
| CC(CCNc1nn(CCC(C)N2CCCCC2)c2ccccc12)N(C)C (centres unmarked) [Compound (45)] | 21% |  |  |  | 124 mg/kg |  |
| CCN(CC)CCCNc1nn(CCC(C)N(C)C)c2ccccc12 (centres unmarked) [Compound (46), 1-(3-dimethylaminobutyl)-3-(3-diethylaminopropylamino)indazole] | 29% |  |  |  | 272 mg/kg |  |
| CC(CCn1nc(NCCCN2CCCCC2)c2ccccc21)N(C)C (centres unmarked) [Compound (47), 1-(3-dimethylaminobutyl)-3-(3-piperidinopropylamino)indazole] | 28% |  |  |  | 212 mg/kg |  |
| CC(CCn1nc(NCCC(C)N2CCCCC2)c2ccccc21)N(C)C (centres unmarked) [Compound (48), 1-(3-dimethylaminobutyl)-3-(3-piperidinobutylamino)indazole] | 27% |  |  |  | 213 mg/kg |  |
| CCN(CC)C(CCNc1nn(CCC(C)N(C)C)c2ccccc12)CC(C)C (centres unmarked) [Compound (49), 1-(3-dimethylaminobutyl)-3-(3-diethylamino-5-methylhexylamino)indazole] | 21% |  |  |  | 247 mg/kg |  |
| CN(C)CCCNc1nn(-c2ccccc2)c2ccccc12 [Compound C-6, 1-phenyl-3-(3-dimethylaminopropylamino)indazole, reference compound] |  |  |  |  |  | 0% |
| Nc1nn(-c2ccccc2)c2ccccc12 [Compound C-7, 1-phenyl-3-aminoindazole, reference compound] |  |  |  |  |  | 17% |
